One series has as its system HIV-IIIb. Briefly: Test A: Antiviral Assay in MT4 Cells. In kind it is cell-based, HIV-1. The settings on record: Human immunodeficiency virus 1, IIIB, MT4, 120 h; for inhibition at 0.2 µM: read-out: % inhibition at 0.2 μM; for inhibition at 2 µM: read-out: % inhibition at 2 μM. The method, then:
Test A: Antiviral Assay in MT4 Cells
MT-4 cells were next mixed with HIV-IIIb at an m.o.i of 0.003 for 1 hour, after which time 35 μL of virus/cell mixture (2000 cells) was immediately added to each well containing 40 μL of diluted compound. The plates were then incubated at 37° C. for 5 days. […] Cell lysis was carried out by incubating at room temperature for 10 min and then chemiluminescence was read.

Series [1] is described as follows: Test B: Cytotoxicity Assay. Particulars: human, uninfected MT-4 cells, same protocol as Test A. Type of series: cell-based. The procedure, abridged: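 Uninfected MT-4 cells (2000 per well) incubated with diluted compound at 37° C. for 5 days, following the antiviral protocol without HIV-IIIb.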

Regarding `Cn1nc(NC(=O)C(F)(F)F)c2c(Cl)ccc(-c3ccc(C#CC(C)(C)O)nc3[C@H](Cc3cc(F)cc(F)c3)NC(=O)Cn3nc(C(F)F)c4c3C(F)(F)[C@@H]3C[C@H]43)c21` [Compound 98, N-(4-chloro-7-(2-((S)-1-(2-((3bS,4aR)-3-(difluoromethyl)-5,5-difluoro-3b,4,4a,5-tetrahydro-1H-cyclopropa[3,4]cyclopenta[1,2-c]pyrazol-1-yl)acetamido)-2-(3,5-difluorophenyl)ethyl)-6-(3-hydroxy-3-methylbut-1-yn-1-yl)pyridin-3-yl)-1-methyl-1H-indazol-3-yl)-2,2,2-trifluoroacetamide], in the series with HIV-IIIb, the inhibition at 0.2 µM stood at 100% and the inhibition at 2 µM was 100%. This compound displayed a CC50 at 5 days in series [1] of 8.41 µM.

As to `CNc1nn(C)c2c(-c3ccc(C#CC(C)(C)O)nc3[C@H](Cc3cc(F)cc(F)c3)NC(=O)Cn3nc(C(F)F)c4c3C(F)(F)[C@@H]3C[C@H]43)cccc12` [Compound 68G, 2-((3b-S,4aR)-3-(difluoromethyl)-5,5-difluoro-3b,4,4a,5-tetrahydro-1H-cyclopropa[3,4]cyclopenta[1,2-c]pyrazol-1-yl)-N—((S)-2-(3,5-difluorophenyl)-1-(6-(3-hydroxy-3-methylbut-1-yn-1-yl)-3-(1-methyl-3-(methylamino)-1H-indazol-7-yl)pyridin-2-yl)ethyl)acetamide], in the series with HIV-IIIb, the inhibition at 0.2 µM was determined as 96% and the inhibition at 2 µM was 96%. The same compound displayed a CC50 at 5 days in series [1] of 9.64 µM.

In the case of `CN(C)CC(=O)Nc1nn(C)c2c(-c3ccc(C#CC(C)(C)O)nc3[C@H](Cc3cc(F)cc(F)c3)NC(=O)Cn3nc(C(F)F)c4c3C(F)(F)[C@@H]3C[C@H]43)ccc(Cl)c12` [Compound 99B, N—((S)-1-(3-(4-chloro-3-(2-(dimethylamino)acetamido)-1-methyl-1H-indazol-7-yl)-6-(3-hydroxy-3-methylbut-1-yn-1-yl)pyridin-2-yl)-2-(3,5-difluorophenyl)ethyl)-2-((3b-S,4aR)-3-(difluoromethyl)-5,5-difluoro-3b,4,4a,5-tetrahydro-1H-cyclopropa[3,4]cyclopenta[1,2-c]pyrazol-1-yl)acetamide], in the series with HIV-IIIb, the inhibition at 0.2 µM was found to be 100% and the inhibition at 2 µM is 100%. The CC50 at 5 days in series [1] turned out to be 6.37 µM.

Take `Cn1nc(NS(C)(=O)=O)c2c(Cl)ccc(-c3ccc(C#CC(C)(O)CNC(=O)OC(C)(C)C)nc3[C@H](Cc3cc(F)cc(F)c3)NC(=O)Cn3nc(C(F)(F)F)c4c3C(F)(F)[C@@H]3C[C@H]43)c21` (stereo partly drawn) [Compound 184, tert-butyl (4-(5-(4-chloro-1-methyl-3-(methylsulfonamido)-1H-indazol-7-yl)-6-((S)-1-(2-((3bS,4aR)-5,5-difluoro-3-(trifluoromethyl)-3b,4,4a,5-tetrahydro-1H-cyclopropa[3,4]cyclopenta[1,2-c]pyrazol-1-yl)acetamido)-2-(3,5-difluorophenyl)ethyl)pyridin-2-yl)-2-hydroxy-2-methylbut-3-yn-1-yl)carbamate]: in the series with HIV-IIIb, the inhibition at 0.2 µM was 90% and the inhibition at 2 µM stood at 90%. Also, in series [1], the CC50 at 5 days is 7.69 µM.

In the case of `Cc1c(-c2ccc(C#CC(C)(C)O)nc2[C@H](Cc2cc(F)cc(F)c2)NC(=O)Cn2nc(C(F)F)c3c2C(F)(F)[C@@H]2C[C@H]32)ccc2n[nH]c(=O)n12` [Compound 38, 2-((3b-S,4aR)-3-(difluoromethyl)-5,5-difluoro-3b,4,4a,5-tetrahydro-1H-cyclopropa[3,4]cyclopenta[1,2-c]pyrazol-1-yl)-N—((S)-2-(3,5-difluorophenyl)-1-(6-(3-hydroxy-3-methylbut-1-yn-1-yl)-3-(5-methyl-3-oxo-2,3-dihydro-[1,2,4]triazolo[4,3-a]pyridin-6-yl)pyridin-2-yl)ethyl)acetamide], in the series on HIV-IIIb, the inhibition at 0.2 µM stood at 96% and the inhibition at 2 µM was 96%. Moreover, the CC50 at 5 days in series [1] was 13.5 µM.

For the compound `CC(C)(O)C#Cc1ccc(-c2cc(F)c(F)c(C(N)=O)c2)c([C@H](Cc2cc(F)cc(F)c2)NC(=O)Cn2nc(C(F)(F)F)c3c2C(F)(F)[C@@H]2C[C@H]32)n1` [Compound 30, 5-(2-((S)-1-(2-((3bS,4aR)-5,5-difluoro-3-(trifluoromethyl)-3b,4,4a,5-tetrahydro-1H-cyclopropa[3,4]cyclopenta[1,2-c]pyrazol-1-yl)acetamido)-2-(3,5-difluorophenyl)ethyl)-6-(3-hydroxy-3-methylbut-1-yn-1-yl)pyridin-3-yl)-2,3-difluorobenzamide], in the series on HIV-IIIb, the inhibition at 0.2 µM was determined as 1% and the inhibition at 2 µM turned out to be 91%. In series [1], the CC50 at 5 days turned out to be 8.58 µM.

In the case of `CNS(=O)(=O)Nc1nn(C)c2c(-c3ccc(C#CC(C)(C)O)nc3[C@H](Cc3cc(F)cc(F)c3)NC(=O)Cn3nc(C(F)F)c4c3C(F)(F)[C@@H]3C[C@H]43)ccc(Cl)c12` [Compound 123, N—((S)-1-(3-(4-chloro-1-methyl-3-((N-methylsulfamoyl)amino)-1H-indazol-7-yl)-6-(3-hydroxy-3-methylbut-1-yn-1-yl)pyridin-2-yl)-2-(3,5-difluorophenyl)ethyl)-2-((3b-S,4aR)-3-(difluoromethyl)-5,5-difluoro-3b,4,4a,5-tetrahydro-1H-cyclopropa[3,4]cyclopenta[1,2-c]pyrazol-1-yl)acetamide], in the series with HIV-IIIb, the inhibition at 0.2 µM came out at 90% and the inhibition at 2 µM was determined as 90%. The compound also displayed a CC50 at 5 days in series [1] of 7.9 µM.

Take `Cn1nc(NC(=O)NC2CC2)c2cccc(-c3ccc(C#CC(C)(C)O)nc3[C@H](Cc3cc(F)cc(F)c3)NC(=O)Cn3nc(C(F)(F)F)c4c3C(F)(F)[C@@H]3C[C@H]43)c21` [Compound 50, N—((S)-1-(3-(3-(3-cyclopropylureido)-1-methyl-1H-indazol-7-yl)-6-(3-hydroxy-3-methylbut-1-yn-1-yl)pyridin-2-yl)-2-(3,5-difluorophenyl)ethyl)-2-((3b-S,4aR)-5,5-difluoro-3-(trifluoromethyl)-3b,4,4a,5-tetrahydro-1H-cyclopropa[3,4]cyclopenta[1,2-c]pyrazol-1-yl)acetamide]: in the series on HIV-IIIb, the inhibition at 0.2 µM was determined as 95% and the inhibition at 2 µM is 96%. This compound also registered a CC50 at 5 days in series [1] of 11.7 µM.

For `Cn1nc(NC(=O)CN2CCCC2)c2c(Cl)ccc(-c3ccc(C#CC(C)(C)O)nc3[C@H](Cc3cc(F)cc(F)c3)NC(=O)Cn3nc(C(F)F)c4c3C(F)(F)[C@@H]3C[C@H]43)c21` [Compound 100, N—((S)-1-(3-(4-chloro-1-methyl-3-(2-(pyrrolidin-1-yl)acetamido)-1H-indazol-7-yl)-6-(3-hydroxy-3-methylbut-1-yn-1-yl)pyridin-2-yl)-2-(3,5-difluorophenyl)ethyl)-2-((3b-S,4aR)-3-(difluoromethyl)-5,5-difluoro-3b,4,4a,5-tetrahydro-1H-cyclopropa[3,4]cyclopenta[1,2-c]pyrazol-1-yl)acetamide], in the series with HIV-IIIb, the inhibition at 0.2 µM is 99% and the inhibition at 2 µM was 99%. For the same compound, the CC50 at 5 days in series [1] stood at 5.14 µM.

For `Cn1nc(NS(C)(=O)=O)c2cccc(-c3ccc(C#CC(C)(C)O)nc3[C@H](Cc3cc(F)cc(F)c3)NC(=O)Cn3nc(C(F)F)c4c3C(F)(F)CCC4(F)F)c21` [Compound 42, (S)-2-(3-(difluoromethyl)-4,4,7,7-tetrafluoro-4,5,6,7-tetrahydro-1H-indazol-1-yl)-N-(2-(3,5-difluorophenyl)-1-(6-(3-hydroxy-3-methylbut-1-yn-1-yl)-3-(1-methyl-3-(methylsulfonamido)-1H-indazol-7-yl)pyridin-2-yl)ethyl)acetamide], in the series on HIV-IIIb, the inhibition at 0.2 µM is 100% and the inhibition at 2 µM was 100%. The CC50 at 5 days in series [1] worked out at 11.8 µM.

Values taken from patent US20140303164A1, “THERAPEUTIC COMPOUNDS” (Gilead Sciences, Inc., priority 2013, published 2014).
